Target: T1, GST-FAK-NT2 and IGF-1Rβ (Homo sapiens, UniProt Q05397)
T1 construct: host or cells: E. coli BL21 (DE3) for GST-FAK-NT2
Experiment: Pull-down assay with purified GST-FAK-NT2 and IGF-1Rβ
Conditions: average IC50, pulldown; read-out: IC50, decrease in binding between purified GST-FAK-NT2 and IGF-1Rβ
From the text: Computational Docking The crystal structures of the N-terminal domain of FAK (PDB code 2AL6) (22) and the kinase domain of IGF-1R(PDB 1P40A) (23) were utilized for in silico molecular modeling of their interaction as previously described. The three-dimensional coordinates of compound NSC344553 (INT2-31), obtained from the database of the National Cancer Institute, Developmental Therapeutics Program (NCI/DTP), were docked onto the predicted interface of the amino-terminus of FAK (amino acids 127-243) with the intracytoplasmic portion of IGF-1R (21). […] 100 orientations were created for NSC344553 in the target site and were scored using the computer program grid-based scoring function. […] The intermolecular energies for all configurations of NSC 344553 in binding to FAK-NT2 were calculated as the sum of electrostatic and van der Waals energies. These energy terms were evaluated as correlation functions, which were computed efficiently with Fast Fourier Transforms. […] Bound proteins were boiled in 6× Laemmli buffer and analyzed by SDS-PAGE and Western blotting. […] The intensity of the bands in the western blots was measured with scion image analysis software program. […]

T1 sequence (Q05397 127-243): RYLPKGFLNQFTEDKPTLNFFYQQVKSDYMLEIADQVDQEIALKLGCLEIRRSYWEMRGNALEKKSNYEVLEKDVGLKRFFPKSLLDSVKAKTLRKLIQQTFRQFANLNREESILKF

Work on `CSc1ncnc2c1ccn2C1O[C@H](COP(=O)(O)O)[C@@H](O)[C@H]1O` (stereo partly drawn) [INT2-31, 4-(Methylthio)-7-(5-O-phosphono-D-ribofuranosyl)-{7H-Pyrrolo[2,3-d]pyrimidine}] yielded an IC50 of 3.96 µM.

Reference: US20120107323A1, “KINASE PROTEIN BINDING INHIBITORS” (University of Florida, priority 2009, published 2012)
